# Where “and” joins values, the source holds several entries; their conditions need not be identical. Equal entries are not always repeated. Where two headings read alike, the source gives them in different places.
# Assays:
# [1] = tested on: MCF-7 human breast adenocarcinoma cells; assay: MTT cytotoxicity assay, MCF-7 cells; assay type: cell-based; conditions: for IC50: MTT, read-out: IC50
# Method: (§1) For cytotoxicity experiments, cancer cells were seeded at a density of 5,000 (MCF-7), 10,000 (HL-60) or 2,000 cells/well (HCT116 and A549) in 96-well plates (TPP) for 24 h/37°C prior to the addition of examined agents. The non-cancerous cells, 3T3 and H9c2 cells, were cultured for 24 h/37°C in 96-well plates at a density of 10,000 cells/well, the medium was then changed to serum- and pyruvate-free DMEM (Sigma-Aldrich) and incubated with the cells for another 24 h/37°C. The cytotoxic effects of Bp4eT and its metabolites were studied at different concentrations after a 72 h/37°C incubation. In order to aid the dissolution of the lipophilic ligands, 0.1% dimethyl sulfoxide (v/v) (DMSO; Sigma-Aldrich) was present in the culture medium of all groups. At this concentration, DMSO had no effect on cellular proliferation or viability.
# (§2) The viability of cells were determined using an MTT assay (Sigma-Aldrich) according to previously established methods. The optical density of soluble MTT was measured at λ = 570 nm, subtracting the λ = 690 nm background using a Tecan Infinite 200M plate reader (Tecan Group, Männedorf, Switzerland). The viability or proliferation of experimental groups was expressed as a percentage of the untreated controls (100%).
# (§3) SigmaStat for Windows 3.5 (Systat Software, San Jose, CA, USA) statistical software package was utilized to analyze results. The data are expressed as the mean ± SD of a given number of experiments. Statistical significance was determined using a one-way ANOVA with a Bonferroni post-hoc test or Student’s t-test. The results were considered to be statistically significant when p < 0.05. The IC50 values were calculated using CalcuSyn 2.0 software (Biosoft, Cambridge, UK). Cell cycle analysis was evaluated using MultiCycle AV Software (Phoenix Flow Systems, San Diego, CA, USA).
# [2] = tested on: A549 human lung adenocarcinoma cells; assay: MTT cytotoxicity assay, A549 cells; assay type: cell-based; conditions: for IC50: MTT
# Method: as §1, §2, §3
# MCF-7 cells = assay: Cellular 59Fe uptake from 59Fe2-transferrin; assay type: cell-based, human; design: key to Uptake 59Fe, Ave / Uptake 59Fe: % of internalized 59Fe in untreated control cells; conditions: Control Ave = 100
# Text: Human transferrin (Sigma) was labeled with ^56Fe or ^59Fe (PerkinElmer, Massachusetts, USA) to produce ^56Fe2-transferrin or ^59Fe2-transferrin (^59Fe2-Tf), respectively, with a final specific activity of 500 pCi/pmol Fe, as previously described. Unbound ^59Fe was removed by exhaustive vacuum dialysis against a large excess of 0.15 M NaCl buffered to pH 7.4 with 1.4% NaHCO3 by standard methods.
# The ability of the chelators to prevent cellular ^59Fe uptake from ^59Fe2-transferrin was examined using standard techniques. In brief, confluent MCF-7 cells in 6-well plates were incubated with 0.75 μM ^59Fe2-Tf for 3 h/37°C in the presence of Bp4eT or its metabolites (25 μM). The cells were then washed four times with ice-cold PBS and the level of internalized ^59Fe was determined by incubating the cell monolayer for 30 min/4°C with the general protease, Pronase (1 mg/mL; Sigma-Aldrich). The cells were then removed from the monolayer with a plastic spatula on ice and centrifuged for 1 min/12,000 x g/4°C. The supernatant represents membrane-bound, Pronase-sensitive ^59Fe that was released by the protease, while the Pronase-insensitive fraction represents internalized ^59Fe. The amount of internalized ^59Fe was expressed as a percentage of ^59Fe internalized by control (untreated) cells.
# [3] = Viability (viabilita) used to normalise caspase activity; assay type: cell-based, human; conditions: human, MCF-7 cells, kontrola = 100;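 further: compound tested at 100 nM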
# Text: Supplement pone.0139929.s002.zip/caspases activity.xlsx, sheet "results_viability"
smiles,measurement,setting,value
"CCNC(=O)NN=C(c1ccccc1)c1ccccn1 [Z-Bp4eS, 2-benzoylpyridine 4-ethylsemicarbazone]","Therapeutic index, IC50 non-cancerous cells / IC50 neoplastic cells",[1]; 3T3/MCF-7,>5.1
same,"Therapeutic index, IC50 non-cancerous cells / IC50 neoplastic cells",[1]; H9c2/MCF-7,1.7
same,IC50,"[1]; MCF-7, 72 h/37°C, mean ± SD, n ≥ 4",198 ± 20.9 µM
same,IC50,"[1]; MCF-7, 5 000 b/j, průměr (mean)",198 µM
same,IC50,"[1]; MCF-7, 5 000 b/j, single experiment (by date)",185 µM and 224 µM and 177 µM and 205 µM
same,"MTT, value relative to 0 μM = 100","[1]; MCF-7, 5 000 b/j, koncentrace 1 μM, průměr (mean)",93.54
same,"MTT, value relative to 0 μM = 100","[1]; MCF-7, 5 000 b/j, koncentrace 1 μM, single experiment (by date)",102.478 and 93.2821 and 90.3792 and 88.0305
same,"MTT, value relative to 0 μM = 100","[1]; MCF-7, 5 000 b/j, koncentrace 3 μM, průměr (mean)",89.98
same,"MTT, value relative to 0 μM = 100","[1]; MCF-7, 5 000 b/j, koncentrace 3 μM, single experiment (by date)",104.08 and 86.4853 and 85.3702 and 83.9685
same,"MTT, value relative to 0 μM = 100","[1]; MCF-7, 5 000 b/j, koncentrace 10 μM, průměr (mean)",90.26
same,"MTT, value relative to 0 μM = 100","[1]; MCF-7, 5 000 b/j, koncentrace 10 μM, single experiment (by date)",95.2561 and 95.1363 and 88.6166 and 84.693 and 87.5852
same,"MTT, value relative to 0 μM = 100","[1]; MCF-7, 5 000 b/j, koncentrace 30 μM, průměr (mean)",93.09
same,"MTT, value relative to 0 μM = 100","[1]; MCF-7, 5 000 b/j, koncentrace 30 μM, single experiment (by date)",93.8264 and 93.1628 and 90.8333 and 94.5401
same,"MTT, value relative to 0 μM = 100","[1]; MCF-7, 5 000 b/j, koncentrace 100 μM, průměr (mean)",68.42
same,"MTT, value relative to 0 μM = 100","[1]; MCF-7, 5 000 b/j, koncentrace 100 μM, single experiment (by date)",56.52 and 67.9071 and 73.7709 and 75.4946
same,"MTT, value relative to 0 μM = 100","[1]; MCF-7, 5 000 b/j, koncentrace 300 μM, průměr (mean)",29.85
same,"MTT, value relative to 0 μM = 100","[1]; MCF-7, 5 000 b/j, koncentrace 300 μM, single experiment (by date)",23.6355 and 38.2595 and 25.5292 and 31.9956
same,"MTT, value relative to 0 μM = 100","[1]; MCF-7, 5 000 b/j, koncentrace 1000 μM, průměr (mean)",13.67
same,"MTT, value relative to 0 μM = 100","[1]; MCF-7, 5 000 b/j, koncentrace 1000 μM, single experiment (by date)",18.442 and 16.1441 and 10.4709 and 9.64
same,"Therapeutic index, IC50 non-cancerous cells / IC50 neoplastic cells",[2]; 3T3/A549,>1.9
same,IC50,"[2]; A549, 72 h/37°C, mean ± SD, n ≥ 4",536 ± 147 µM
same,"MTT, relative to control (0 = 100)","[2]; A549, 2 000 b/j, 1 μM, průměr (mean), sheet Z-Bp4eS",94.73
same,"MTT, relative to control (0 = 100)","[2]; A549, 2 000 b/j, 1 μM, single experiment (date), sheet Z-Bp4eS",96.1035 and 96.1124 and 90.1392 and 98.3089 and 94.9198 and 92.7894
same,"MTT, relative to control (0 = 100)","[2]; A549, 2 000 b/j, 3 μM, průměr (mean), sheet Z-Bp4eS",94.38
same,"MTT, relative to control (0 = 100)","[2]; A549, 2 000 b/j, 3 μM, single experiment (date), sheet Z-Bp4eS",93.9771 and 96.8848 and 87.0494 and 97.8403 and 95.4397 and 95.0776
same,"MTT, relative to control (0 = 100)","[2]; A549, 2 000 b/j, 10 μM, průměr (mean), sheet Z-Bp4eS",94.55
same,"MTT, relative to control (0 = 100)","[2]; A549, 2 000 b/j, 10 μM, single experiment (date), sheet Z-Bp4eS",94.0202 and 95.9602 and 87.4767 and 100.017 and 95.1483 and 94.6861
same,"MTT, relative to control (0 = 100)","[2]; A549, 2 000 b/j, 30 μM, průměr (mean), sheet Z-Bp4eS",91.68
same,"MTT, relative to control (0 = 100)","[2]; A549, 2 000 b/j, 30 μM, single experiment (date), sheet Z-Bp4eS",90.8876 and 93.251 and 83.1786 and 91.8017 and 95.6624 and 95.2834
same,"MTT, relative to control (0 = 100)","[2]; A549, 2 000 b/j, 100 μM, průměr (mean), sheet Z-Bp4eS",84.34
same,"MTT, relative to control (0 = 100)","[2]; A549, 2 000 b/j, 100 μM, single experiment (date), sheet Z-Bp4eS",76.9185 and 86.3352 and 79.6865 and 86.589 and 88.5447 and 87.9645
same,"MTT, relative to control (0 = 100)","[2]; A549, 2 000 b/j, 300 μM, průměr (mean), sheet Z-Bp4eS",74.88
same,"MTT, relative to control (0 = 100)","[2]; A549, 2 000 b/j, 300 μM, single experiment (date), sheet Z-Bp4eS",67.4475 and 78.3776 and 76.2041 and 77.4903
same,"MTT, relative to control (0 = 100)","[2]; A549, 2 000 b/j, 1000 μM, průměr (mean), sheet Z-Bp4eS",26.69
same,"MTT, relative to control (0 = 100)","[2]; A549, 2 000 b/j, 1000 μM, single experiment (date), sheet Z-Bp4eS",18.2318 and 35.0023 and 34.1521 and 19.3887
same,IC50,"[2]; A549, 2 000 b/j, single experiment (date), sheet Z-Bp4eS",676 µM and 639 µM and 464 µM
same,"Therapeutic index, IC50 non-cancerous cells / IC50 neoplastic cells",[2]; H9c2/A549,0.6
same,IC50,"[2]; Homo sapiens, A549, A549, 2 000 b/j, průměr (mean), sheet Z-Bp4eS",536 µM
same,IC50,"[2]; Homo sapiens, A549, A549, 2 000 b/j, single experiment (date), sheet Z-Bp4eS",364 µM
same,"Uptake 59Fe, Ave",MCF-7 cells; average of all replicates,99.1556
same,Uptake 59Fe,MCF-7 cells; single replicate (three per date),95.0144 and 99.433 and 101.961 and 99.9491 and 96.6715 and 101.111 and 99.7324 and 96.809 and 101.719
same,"viability at 3 h, 100 nM",[3]; 3 hodiny,97.4%
same,"viability at 24 h, 100 nM",[3]; 24 hodin,99.5%
same,"viability at 72 h, 100 nM",[3]; 72 hodin,93.5%

# — PMC4604124, “In Vitro Characterization of the Pharmacological Properties of the Anti-Cancer Chelator, Bp4eT, and Its Phase I Metabolites” (PLoS ONE, 2015)
